Assays:
[1] = system: fatty acid synthase (FASN); assay: RT-qPCR FASN mRNA in HepaRG cells; type: cell-based, human; conditions: 4 days, vs control
Method: Total RNA was extracted with the Nucleospin RNA isolation system purchased from Macherey-Nagel (Düren, Germany), which included a DNase treatment step. Quantification of isolated RNAs was assessed using a Nanodrop 1000 (Thermo Fisher Scientific, Waltham, MA). RNAs were reverse-transcribed into cDNAs using the High-Capacity cDNA Reverse Transcription Kit purchased from Applied Biosystems (Woolston, UK). Gene expression was assessed by real-time quantitative PCR analysis (RT-qPCR) using SYBR Green PCR Master Mix (Applied Biosystems) and a 384-well QuantStudio™ 7 Flex Real-Time PCR System (Thermo Fisher Scientific). Sequences of the primers used to measure gene expression are presented in Supplementary Table 3. Expression of GAPDH was chosen as reference and the 2^−ΔΔCt calculation method was used to express the relative expression of each selected gene.

HepaRG cells = assay: Neutral lipids with Nile red in HepaRG cells; conditions: 4 days, selected concentrations (ATP loss < 30%, not above 100 × Cmax), vs control

SMILES: COc1ccc2c(c1)c(CC(=O)O)c(C)n2C(=O)c1ccc(Cl)cc1 [INDO, indomethacin]
- FASN mRNA level [1]: augmented mRNA abundance

SMILES: CO[C@H]1/C=C/O[C@@]2(C)Oc3c(C)c(O)c4c(O)c(c(/C=N/N5CCN(C)CC5)c(O)c4c3C2=O)NC(=O)/C(C)=C\C=C\[C@H](C)[C@H](O)[C@@H](C)[C@@H](O)[C@@H](C)[C@H](OC(C)=O)[C@@H]1C [RIF, rifampicin]
- Accumulation of neutral lipids (steatosis) (HepaRG cells): significant accumulation of neutral lipids

Reference: publication PMC8012331, “Drug-induced hepatic steatosis in absence of severe mitochondrial dysfunction in HepaRG cells: proof of multiple mechanism-based toxicity” (Cell Biology and Toxicology, 2020)
